In patent publication US20260234153A1, “NON-COVALENT DIMER CATION OF PURINE/PYRIMIDINE AND AMINO ACID, SALT THEREOF, PREPARATION METHOD THEREFOR, AND USE THEREOF” (Suzhou Protonation Chain Biotechnology Co., Ltd, priority 2023, published 2026):

Key:
[1] = test system: GES-1 human gastric mucosal epithelial cells; assay: Ethanol induced damage model of gastric mucosal epithelial cells, cell viability; type: cell-based; details: GES1, GES-1 cells, 7% ethanol 12 h, then compound concentration 0.5 mg/mL, 24 h
Method: Chronic alcoholics are prone to gastric mucosal damage due to long-term alcohol damage.
The salts of example 51 and example 57 were taken as experimental compounds, and glycyrrhetinic acid was taken as a control compound. A blank control group (without ethanol) and a model group (with ethanol but without the salts of the examples or glycyrrhetinic acid) were set.
The cells were cultured in a complete RPMI 1640 medium for 6 h.
(§1) Then, the cell viability was detected.

[2] = test system: SH-SY5Y human neuroblastoma cells; assay: Parkinson's disease cell model (6-OHDA), cell viability; type: cell-based; details: 24 h, read-out: Cell viability (%)
Text: The salts of example 51 and examples 57 were taken as experimental compounds, and selegiline was taken as a control compound.
as §1

| SMILES | viability at 500 µg/mL [1] [%] | viability at 500 µg/mL [2] [%] |
| --- | --- | --- |
| CC1(C)[C@@H](O)CC[C@]2(C)[C@H]3C(=O)C=C4[C@@H]5C[C@@](C)(C(=O)O)CC[C@]5(C)CC[C@@]4(C)[C@]3(C)CC[C@@H]12 [Glycyrrhetinic acid, glycyrrhetinic acid] | 61.8 | – |
| C#CCN(C)[C@H](C)Cc1ccccc1 [Selegiline, selegiline] | – | 37.5 |
